# Results: patent publication US11535596B2 (priority 2020, dated 2022)
# Where two headings read alike, the source gives them in different places.
# Tests used:
# [1] = Drug stability in human liver microsomes; format: in vitro ADME
# Excerpt: Testing of Drug Stability in Human Liver Microsomes
# This assay involves exposing a test compound to vesicles which contain the contents of digestive organelles (endoplasmic reticula) derived from human liver cells. The tests were done by Microconstants Inc., San Diego, Calif., using methods substantially as described in J. R. Hill, “In vitro drug metabolism using liver microsomes,” Curr. Protocols Pharmacol., Chapter 7, Unit 7.8 (2004), John Wiley & Sons, Inc.
# The results, in Table 1 below, indicate the percentage decomposition of the test compound after 1 hour. […] Although degraded as rapidly, or even more rapidly than DM, other compounds remain of interest due to their receptor binding activities, as detailed further below.
# [2] = target: phencyclidine site of NMDA-type glutamate receptors; assay: NMDA receptor (phencyclidine site) radioligand binding inhibition
# Experimental: In vitro binding assays for the phencyclidine site of NMDA-type glutamate receptors, and for sigma-1 receptors, both of which are known to be bound by DM, were conducted by Sekisui Medical Co., Ltd. of Ibaraki, Japan. In these assays, DM acts as an antagonist at NMDA receptors, which are excitatory in their effects, thereby allowing DM to reduce, calm, and modulate unwanted neuronal activity in neuronal networks that are activated by glutamate agonist activity at NMDA receptors. DM acts as an agonist at sigma-1 receptors, which are inhibitory receptors, thereby allowing DM to reduce unwanted neuronal activity by a second mechanism. Assays for sigma-1 and NMDA (phencyclidine site) receptor affinities, based on inhibition of radioligand binding, provided the results shown in Table 2 below.
# [3] = target: sigma-1 receptors (Homo sapiens (Human), UniProt Q99720); assay: biochemical; format: binding
# Sequence of sigma-1 receptors (Q99720 whole entry, looked up): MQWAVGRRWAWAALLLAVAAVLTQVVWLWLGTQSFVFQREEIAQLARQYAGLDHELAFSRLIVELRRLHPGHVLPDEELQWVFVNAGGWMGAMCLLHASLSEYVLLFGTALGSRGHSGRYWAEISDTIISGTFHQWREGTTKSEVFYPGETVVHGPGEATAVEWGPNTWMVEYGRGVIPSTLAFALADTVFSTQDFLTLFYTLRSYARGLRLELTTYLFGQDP
# [4] = target: κ opioid receptor (Homo sapiens (Human), UniProt P41145); assay: biochemical; details: 3H-diprenorphine binding; for IC50: read-out: Opiate κ IC50; for Ki: read-out: Opiate κ Ki
# [5] = target: human serotonin transporter (Homo sapiens (Human), UniProt P31645); assay: biochemical; details: 3H-imipramine binding, HEK-293 membranes; for IC50: read-out: SERT IC50; for Ki: read-out: SERT Ki
# Excerpt: Serotonin Transporter (SERT) Assay
# The serotonin transporter (SERT) is a monoamine transporter protein that transports serotonin from the synaptic cleft back to the presynaptic neuron (serotonin reuptake.) Serotonin modulates emotional states in humans, and inhibition of SERT activity is the basis for the SSRI class of antidepressants.
# [6] = target: μ opioid receptor (Homo sapiens (Human), UniProt P35372); assay: μ opioid receptor radioligand (3H-diprenorphine) binding assay
# [7] = Caco-2 bidirectional permeability assay; format: in vitro ADME; set-up: Papp A→B / Papp B→A: dose or concentration left out as unconfirmed; details: human
# Excerpt: The human colon carcinoma cell Caco-2 provides a well-established and effective model for predicting intestinal absorption of chemicals, and in determining the mechanism of transport. […] The method is used to assess the bidirectional permeability of a test compound, from the apical to the basolateral side (A-B) of a Caco-2 cell monolayer membrane, and vice versa (B-A). R. B. van Breemen, Y. Li, “Caco-2 cell permeability assays to measure drug absorption,” Expert Opin. Drug Metab. […] The transport rate of a compound across the monolayer is highly predictive of the in vivo absorption of the compound across the gut wall, and the Caco-2 permeability assay is an FDA-recommended method for evaluating the absorption of orally-administered drugs. Results of this assay for selected reference drugs and compounds of the invention are set out in Table 3.
# [8] = target: human recombinant hERG (Homo sapiens (Human), UniProt Q12809); assay: hERG radioligand (3H-astemizole) binding assay
# Sequence of human recombinant hERG (Q12809 whole entry, looked up): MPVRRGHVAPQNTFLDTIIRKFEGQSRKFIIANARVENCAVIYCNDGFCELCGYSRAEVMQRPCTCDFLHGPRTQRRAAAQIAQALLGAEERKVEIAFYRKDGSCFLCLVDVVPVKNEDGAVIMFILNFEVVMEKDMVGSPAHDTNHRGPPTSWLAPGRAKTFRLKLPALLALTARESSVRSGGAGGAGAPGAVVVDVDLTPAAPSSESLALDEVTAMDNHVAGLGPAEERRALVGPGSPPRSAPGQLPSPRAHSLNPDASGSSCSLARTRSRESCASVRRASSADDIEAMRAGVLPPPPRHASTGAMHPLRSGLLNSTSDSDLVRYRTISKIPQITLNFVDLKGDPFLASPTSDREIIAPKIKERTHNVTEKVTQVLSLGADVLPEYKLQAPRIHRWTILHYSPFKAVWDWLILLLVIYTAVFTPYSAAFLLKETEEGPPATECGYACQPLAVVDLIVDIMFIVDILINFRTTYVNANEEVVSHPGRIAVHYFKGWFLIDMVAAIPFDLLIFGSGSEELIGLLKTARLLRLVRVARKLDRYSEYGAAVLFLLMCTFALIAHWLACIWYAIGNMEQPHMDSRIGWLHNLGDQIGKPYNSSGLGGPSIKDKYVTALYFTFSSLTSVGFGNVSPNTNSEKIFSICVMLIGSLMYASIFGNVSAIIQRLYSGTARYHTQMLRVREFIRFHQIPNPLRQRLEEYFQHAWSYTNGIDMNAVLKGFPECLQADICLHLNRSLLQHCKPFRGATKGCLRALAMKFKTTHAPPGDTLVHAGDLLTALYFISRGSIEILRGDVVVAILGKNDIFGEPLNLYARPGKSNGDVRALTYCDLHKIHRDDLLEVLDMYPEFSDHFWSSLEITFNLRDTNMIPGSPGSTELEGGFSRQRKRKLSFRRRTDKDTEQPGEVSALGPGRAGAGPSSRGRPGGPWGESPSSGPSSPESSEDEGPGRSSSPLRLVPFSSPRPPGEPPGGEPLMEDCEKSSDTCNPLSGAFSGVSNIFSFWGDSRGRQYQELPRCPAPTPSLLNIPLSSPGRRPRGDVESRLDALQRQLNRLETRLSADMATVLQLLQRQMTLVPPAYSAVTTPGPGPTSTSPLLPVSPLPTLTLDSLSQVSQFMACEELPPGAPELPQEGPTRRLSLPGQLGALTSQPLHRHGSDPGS
# Excerpt: Cardiac Potassium Channel (hERG) Assays
# The human ether-a-go-go related gene (hERG) encodes the inward-rectifying voltage-gated potassium channel (IKr) in the heart, which is involved in cardiac repolarization. Inhibition of the hERG current causes QT interval prolongation, potentially resulting in ventricular tachyarrhythmia, and the detection of this potential liability is desirable at an early stage of drug discovery.
# [9] = cited from earlier work
# [10] = inhibition of radioligand binding, read-out: Sigma-1 IC50
# [11] = inhibition of radioligand binding, read-out: Sigma-1 Ki
smiles,measurement,setting,value
"[2H]C([2H])(Oc1ccc2c(c1)[C@]13CCCC[C@@H]1[C@H](C2)N(C)CC3)C(F)F [CNS1-D2, (1S,9S,10S)-4-(1,1-dideuterio-2,2-difluoroethoxy)-17-methyl-17-azatetracyclo[7.5.3.0^1,10.0^2,7]heptadeca-2(7),3,5-triene]",half-life,[1],123 min
same,IC50,[2],> 30000 nM
same,IC50,[3]; [10],57.8 nM
same,Ki,[3]; [11],40.6 nM
"[2H]C([2H])(Oc1ccc2c(c1)[C@]13CCCC[C@@H]1[C@H](C2)N(C([2H])([2H])[2H])CC3)C(F)F [CNS1-D5, (1S,9S,10S)-4-(1,1-dideuterio-2,2-difluoroethoxy)-17-(trideuteriomethyl)-17-azatetracyclo[7.5.3.0^1,10.0^2,7]-heptadeca-2,4,6-triene]",half-life,[1],> 240 min
same,% decomposition at 1 hour,[1],9.7%
same,Ki,[2],9900 nM
same,IC50,[4],29800 nM
same,Ki,[4],12000 nM
same,IC50,[5],44.1 nM
same,Ki,[5],26.2 nM
same,IC50,[6],54700 nM
same,Ki,[6],10100 nM
same,Ki,[3]; [11],22 nM
same,Papp A→B at 0.1 μM,[7]; apical to basolateral,14.4 ×10⁻⁶ cm/s
same,Papp B→A at 0.1 μM,[7]; basolateral to apical,12.5 ×10⁻⁶ cm/s
same,Papp A→B at 1 μM,[7]; apical to basolateral,18.4 ×10⁻⁶ cm/s
same,Papp B→A at 1 μM,[7]; basolateral to apical,15.4 ×10⁻⁶ cm/s
same,IC50,[8],34500 nM
same,Ki,[8],7480 nM
CN1CC[C@@]23CCCC[C@@H]2C1Cc1ccc(OCC(F)F)cc13 [CNS1],rate of metabolism and degradation compared with DM,[1],metabolized and degraded less rapidly than DM
same,% decomposition at 1 hour,[1],6.1%
CN1CC[C@@]23CCCC[C@@H]2C1Cc1ccc(OCCF)cc13 [CNS2],rate of metabolism and degradation compared with DM,[1],metabolized and degraded less rapidly than DM
same,% decomposition at 1 hour,[1],15.4%
CN1CC[C@@]23CCCC[C@@H]2[C@@H]1Cc1ccc(OCc2ccncc2)cc13 [CNS4],% decomposition at 1 hour,[1],100%
"CN1CC[C@@]23CCCC[C@@H]2[C@@H]1Cc1ccc(O)c(Br)c13 [CNS6, (1S,9S,10S)-3-bromo-4-hydroxy-17-methyl-17-azatetracyclo[7.5.3.0^1,10.0^2,7]-heptadeca-2(7),3,5-triene]",% decomposition at 1 hour,[1],56%
same,IC50,[2],> 30000 nM
same,IC50,[3]; [10],172 nM
same,Ki,[3]; [11],121 nM
CN1CC[C@@]23CCCCC2C1Cc1ccc(OCC(F)F)c(Br)c13 (stereo partly drawn) [CNS6-A1-D2],t1/2,[1],60 min
same,IC50,[2],> 30000 nM
same,IC50,[3]; [10],21.8 nM
same,Ki,[3]; [11],15.3 nM
COc1ccc2c(c1Br)[C@]13CCCCC1[C@H](C2)N(C)CC3 (stereo partly drawn) [CNS6-A2],IC50,[3]; [10],247 nM
COc1cc2c(cc1Br)CC1C3CCCC[C@@]23CCN1C (stereo partly drawn) [CNS7-M],IC50,[3],> 10000 nM
COc1ccc2c(c1)[C@]13CCCCC1C(C2)N(Cc1cccnc1)CC3 (stereo partly drawn) [CNS10],% decomposition at 1 hour,[1],98.4%
C=CCN(C)CC[C@@]12CCCC[C@@H]1C=Cc1ccc(OC)cc12 [CNS22],half-life,[1],36 min
same,IC50,[3],29.1 nM
same,Ki,[3],20.5 nM
[2H]C([2H])(Oc1ccc2c(c1)[C@]1(CCN(C)CC=C)CCCC[C@@H]1C=C2)C(F)F [CNS23-D2],half-life,[1],32 min
same,IC50,[3]; [10],11.1 nM
same,Ki,[3]; [11],7.8 nM
"[2H]C([2H])(Oc1ccc2c(c1)[C@]13CCCC[C@@H]1[C@H](C2)N(CCOC)CC3)C(F)F [CNS27-D2, (1S,9S,10S)-4-(1,1-dideuterio-2,2-difluoro-ethoxy)-17-(2-methoxyethyl)-17-azatetracyclo[7.5.3.0^1,10.0^2,7]-heptadeca-2,4,6-triene]",Ki,[2],> 23000 nM
same,IC50,[4],28800 nM
same,Ki,[4],11600 nM
same,IC50,[5],2680 nM
same,Ki,[5],1590 nM
same,IC50,[6],124000 nM
same,Ki,[6],23000 nM
same,Ki,[3]; [11],1.6 nM
same,Papp A→B at 0.1 μM,[7]; apical to basolateral,10.2 ×10⁻⁶ cm/s
same,Papp B→A at 0.1 μM,[7]; basolateral to apical,9.76 ×10⁻⁶ cm/s
same,Papp A→B at 1 μM,[7]; apical to basolateral,11.6 ×10⁻⁶ cm/s
same,Papp B→A at 1 μM,[7]; basolateral to apical,13.1 ×10⁻⁶ cm/s
same,IC50,[8],22300 nM
same,Ki,[8],4800 nM
"CN1CC[C@@]23CCCC[C@@H]2[C@@H]1Cc1ccc(OCC(F)(F)F)cc13 [CNS-222, (1S,9S,10S)-4-(2,2,2-trifluoroethoxy)-17-methyl-17-azatetracyclo[7.5.3.0^1,10.0^2,7]heptadeca-2(7),3,5-triene]",IC50,[3]; [10],50 nM
"CN1CC[C@@]23CCCC[C@@H]2[C@@H]1Cc1ccc(O)cc13 [Dextorphan (DX), reference compound]",IC50,[2],1530 nM
same,Ki,[2],1110 nM
same,IC50,[3]; [10],259 nM
same,Ki,[3]; [11],182 nM
"COc1ccc2c(c1)[C@]13CCCC[C@@H]1[C@H](C2)N(C)CC3 [Dextromethorphan (DM), 3-methoxy-17-methyl-(9α,13α,14α)-morphinan, reference compound]",plasma levels,"[9]; fast metabolizers, 30 mg dose, four hours post ingestion",less than 5 ng/ml
same,plasma levels,"[9]; poor metabolizers, oral dose of 30 mg, at 24 hours",above 5 ng/ml
same,half-life,[1],35 min
same,% decomposition at 1 hour,[1],69%
same,IC50,[2],6820 nM
same,Ki,[2],4520 nM
same,IC50,[6],51700 nM
same,Ki,[6],9580 nM
same,IC50,[3],137 nM
same,Ki,[3],96.3 nM
same,Papp A→B at 0.1 μM,[7]; apical to basolateral,15.9 ×10⁻⁶ cm/s
same,Papp B→A at 0.1 μM,[7]; basolateral to apical,10.8 ×10⁻⁶ cm/s
same,Papp A→B at 1 μM,[7]; apical to basolateral,19 ×10⁻⁶ cm/s
same,Papp B→A at 1 μM,[7]; basolateral to apical,14.2 ×10⁻⁶ cm/s
same,IC50,[8],49100 nM
same,Ki,[8],10600 nM
"Cc1ccc2c(c1)[C@]13CCCC[C@@H]1[C@H](C2)N(C)CC3 [Dimemorphan (DIM), reference compound]",t1/2,[1],22 min
same,IC50,[2],> 30000 nM
same,IC50,[3]; [10],527 nM
same,Ki,[3]; [11],371 nM
"[2H]C([2H])(Oc1ccc2c(c1)[C@]13CCCC[C@@H]1[C@H](C2)NCC3)C(F)F [N-desmethyl CNS1-D2, (1S,9S,10S)-4-(1,1-dideuterio-2,2-difluoro-ethoxy)-17-azatetracyclo[7.5.3.0^1,10.0^2,7]heptadeca-2,4,6-triene]",half-life,[1],> 240 min
same,% decomposition at 1 hour,[1],10.1%
same,Ki,[2],3080 nM
same,IC50,[4],37700 nM
same,Ki,[4],15200 nM
same,IC50,[5],470 nM
same,Ki,[5],279 nM
same,IC50,[6],142000 nM
same,Ki,[6],26300 nM
same,Ki,[3]; [11],70 nM
same,Papp A→B at 0.1 μM,[7]; apical to basolateral,9.71 ×10⁻⁶ cm/s
same,Papp B→A at 0.1 μM,[7]; basolateral to apical,6.33 ×10⁻⁶ cm/s
same,Papp A→B at 1 μM,[7]; apical to basolateral,10.8 ×10⁻⁶ cm/s
same,Papp B→A at 1 μM,[7]; basolateral to apical,10.1 ×10⁻⁶ cm/s
same,IC50,[8],26600 nM
same,Ki,[8],5730 nM
"CC(C)NCC(O)COc1cccc2ccccc12 (stereo not drawn) [Propranolol, reference compound]",Papp A→B,[7]; apical to basolateral,21.2 ×10⁻⁶ cm/s
same,Papp B→A,[7]; basolateral to apical,39 ×10⁻⁶ cm/s
